In patent publication US8030478B2, “Method for nucleic acid replication and novel artificial base pairs” (priority 2005, dated 2011):
Like-named read-outs stand apart in the source and are kept apart here.

Target: T7 RNA polymerase (Escherichia phage T7, UniProt P00573)
Settings: for Composition of nucleotide incorporated as 5′ neighbor of U: Ap / Composition of nucleotide incorporated as 5′ neighbor of U: Gp / Composition of nucleotide incorporated as 5′ neighbor of U: Np (Dsp) / Composition of nucleotide incorporated as 5′ neighbor of U: Up / Composition of nucleotide incorporated as 5′ neighbor of U: Cp: [α-32P]UTP; for Composition of nucleotide incorporated as 5′ neighbor of A: Up / Composition of nucleotide incorporated as 5′ neighbor of A: Np (Dsp) / Composition of nucleotide incorporated as 5′ neighbor of A: Ap / Composition of nucleotide incorporated as 5′ neighbor of A: Gp / Composition of nucleotide incorporated as 5′ neighbor of A: Cp: [α-32P]ATP; for Composition of nucleotide incorporated as 5′ neighbor of A: Cp: theoretical [7]
[1] = Entry 14, template temp35Pa-4, natural NTP 1 mM, Ds 1 mM, theoretical [0]
[2] = Entry 14, template temp35Pa-4, natural NTP 1 mM, Ds 1 mM, theoretical [1]
[3] = Entry 15, template temp35Pa-4, natural NTP 1 mM, Ds 3 mM, theoretical [0]
[4] = Entry 15, template temp35Pa-4, natural NTP 1 mM, Ds 3 mM, theoretical [1]
[5] = Entry 16, template temp35Pa′-4, natural NTP 1 mM, Ds 1 mM, theoretical [0]
[6] = Entry 16, template temp35Pa′-4, natural NTP 1 mM, Ds 1 mM, theoretical [1]
[7] = Entry 17, template temp35Pa′-4, natural NTP 1 mM, Ds 3 mM, theoretical [0]
[8] = Entry 17, template temp35Pa′-4, natural NTP 1 mM, Ds 3 mM, theoretical [1]
[9] = Entry 18, template temp35C-4, natural NTP 1 mM, Ds 1 mM, theoretical [0]
[10] = Entry 18, template temp35C-4, natural NTP 1 mM, Ds 1 mM, theoretical [1]
[11] = Entry 19, template temp35C-4, natural NTP 1 mM, Ds 3 mM, theoretical [0]
[12] = Entry 19, template temp35C-4, natural NTP 1 mM, Ds 3 mM, theoretical [1]
[13] = Entry 20, template temp35T-4, natural NTP 1 mM, Ds 1 mM, theoretical [0]
[14] = Entry 20, template temp35T-4, natural NTP 1 mM, Ds 1 mM, theoretical [1]
[15] = Entry 21, template temp35T-4, natural NTP 1 mM, Ds 3 mM, theoretical [0]
[16] = Entry 21, template temp35T-4, natural NTP 1 mM, Ds 3 mM, theoretical [1]
[17] = Entry 29, template DNA14, natural NTP 2 mM, Ds 2 mM, theoretical [6]
[18] = Entry 31, template DNAcont4, natural NTP 2 mM, Ds 2 mM, theoretical [6]
[19] = Entry 36, template DNA13, natural NTP 2 mM, Ds 2 mM, theoretical [4]
[20] = Entry 37, template DNA14, natural NTP 2 mM, Ds 2 mM, theoretical [4]
[21] = Entry 39, template DNAcont4, natural NTP 2 mM, Ds 2 mM, theoretical [4]

Sequence of T7 RNA polymerase (P00573 whole entry): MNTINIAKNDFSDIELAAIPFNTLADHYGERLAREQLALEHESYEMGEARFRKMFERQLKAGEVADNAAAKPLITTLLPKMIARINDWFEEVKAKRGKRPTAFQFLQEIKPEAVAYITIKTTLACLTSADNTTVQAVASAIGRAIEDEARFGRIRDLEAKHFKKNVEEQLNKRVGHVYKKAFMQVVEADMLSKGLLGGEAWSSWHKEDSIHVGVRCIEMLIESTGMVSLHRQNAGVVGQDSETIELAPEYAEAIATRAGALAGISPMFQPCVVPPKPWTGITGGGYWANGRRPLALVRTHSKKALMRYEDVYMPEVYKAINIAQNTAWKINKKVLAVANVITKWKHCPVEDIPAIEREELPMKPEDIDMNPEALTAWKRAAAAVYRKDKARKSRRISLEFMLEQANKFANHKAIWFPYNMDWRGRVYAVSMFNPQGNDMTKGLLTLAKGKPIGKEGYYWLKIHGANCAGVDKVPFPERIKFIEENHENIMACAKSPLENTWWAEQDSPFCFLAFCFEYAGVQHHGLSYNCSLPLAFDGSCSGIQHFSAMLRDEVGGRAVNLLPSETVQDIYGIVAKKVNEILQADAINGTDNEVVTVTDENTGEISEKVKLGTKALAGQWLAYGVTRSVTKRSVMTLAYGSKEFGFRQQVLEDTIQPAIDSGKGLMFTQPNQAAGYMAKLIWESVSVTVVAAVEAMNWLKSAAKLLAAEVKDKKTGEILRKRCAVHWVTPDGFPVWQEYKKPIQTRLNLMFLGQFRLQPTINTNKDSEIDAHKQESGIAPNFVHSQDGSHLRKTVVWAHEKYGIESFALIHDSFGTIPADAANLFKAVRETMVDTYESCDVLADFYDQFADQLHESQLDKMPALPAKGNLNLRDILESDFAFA
Method: Transcription (20 μl) was accomplished in 40 mM Tris-HCl buffer (pH 8.0) containing 24 mM MgCl2, 2 mM spermidine, 5 mM DTT, 0.01% Triton X-100, 1-3 mM each natural NTP, 0-3 mM Pa′TP, 0-3 mM DsTP, 10 mM GMP, 2 μM template DNA (for 17-mer transcript synthesis) or 0.5 μM template DNA (for tRNA transcript synthesis), and 2.5 units/μl T7 RNA polymerase (TAKARA). […] For nucleotide composition analysis in transcripts (Non-patent Documents 17 and 33), the transcripts were internally labeled with 2 μCi [α-^32P]UTP or [α-^32P]ATP (Amersham). After the transcription, the products were digested with 0.75 units of RNase T2 at 37° C. for 2 hours in 10 μl of 15 mM sodium acetate buffer (pH 4.5). For 17-mer analysis, 0.05 A260 units of E. coli tRNA (Sigma) was added to the digestion reaction solution. The digestion products were analyzed by 2D-TLC (HPTLC plate, 100×100 mm, Merck). The developing solvents used for the first and second dimensions were isobutyric acid-ammonia-water (66:1:33 v/v/v) and isopropyl alcohol-HCl-water (70:15:15 v/v/v or 75:15:10 v/v/v for Pa′ transcripts), respectively. Spots of the labeled nucleotides on the TLC plate were analyzed with a bio-imaging analyzer.
The internally ^32P-labeled transcripts were digested with Rnase T2, and the resulting labeled nucleoside 3′-monophosphates were analyzed by 2D thin-layer chromatography (2D-TLC).

With O=P(O)(O)OP(=O)(O)OP(=O)(O)OC[C@H]1O[C@@H](n2cnc3c(-c4cccs4)ccnc32)[C@H](O)[C@@H]1O [DsTP, 7-(2-Thienyl)-3-(β-D-ribofuranosyl)-3H-imidazo[4,5-b]pyridine 5′-triphosphate] the “Composition of nucleotide incorporated as 5′ neighbor of U: Ap” value (from here on “Composition … of U: Ap”) [1] was 0.02 [0], the “Composition of nucleotide incorporated as 5′ neighbor of U: Gp” value (shortened to “Composition … of U: Gp”) [1] was “n.d. [0]” and the “Composition of nucleotide incorporated as 5′ neighbor of U: Np (Dsp)” value (“Composition … of U: Np (Dsp)” below) [2] was 0.98 [1]. For the same compound, the “Composition of nucleotide incorporated as 5′ neighbor of U: Up” value (“Composition … of U: Up” below) [2] was 1.00 [1], the “Composition of nucleotide incorporated as 5′ neighbor of U: Cp” value (from here on “Composition … of U: Cp”) (Entry 14, template temp35Pa-4, natural NTP 1 mM, Ds 1 mM, theoretical [2]) was 1.99 [2] and the “Composition … of U: Ap” value [3] was 0.01 [0]. The “Composition … of U: Gp” value [3] was “n.d. [0]”, the “Composition … of U: Np (Dsp)” value [4] was 0.99 [1] and the “Composition … of U: Up” value [4] was 1.01 [1]. The “Composition … of U: Cp” value (Entry 15, template temp35Pa-4, natural NTP 1 mM, Ds 3 mM, theoretical [2]) was 1.99 [2], the “Composition … of U: Ap” value [5] was 0.05 [0] and the “Composition … of U: Gp” value [5] was “n.d. [0]”. The “Composition … of U: Np (Dsp)” value [6] was 0.94 [1], the “Composition … of U: Up” value [6] was 1.02 [1] and the “Composition … of U: Cp” value (Entry 16, template temp35Pa′-4, natural NTP 1 mM, Ds 1 mM, theoretical [2]) was 1.98 [2]. The “Composition … of U: Ap” value [7] was 0.02 [0], the “Composition … of U: Gp” value [7] was “n.d. [0]” and the “Composition … of U: Np (Dsp)” value [8] was 0.96 [1]. The “Composition … of U: Up” value [8] was 1.02 [1], the “Composition … of U: Cp” value (Entry 17, template temp35Pa′-4, natural NTP 1 mM, Ds 3 mM, theoretical [2]) was 1.99 [2] and the “Composition … of U: Ap” value [9] was 0.01 [0]. For the same compound, the “Composition … of U: Np (Dsp)” value [9] was “n.d. [0]”, the “Composition … of U: Gp” value [10] was 0.98 [1] and the “Composition … of U: Up” value [10] was 1.00 [1]. The “Composition … of U: Cp” value (Entry 18, template temp35C-4, natural NTP 1 mM, Ds 1 mM, theoretical [2]) was 2.01 [2], the “Composition … of U: Ap” value [11] was 0.01 [0] and the “Composition … of U: Np (Dsp)” value [11] was “n.d. [0]”. For the same compound, the “Composition … of U: Gp” value [12] was 0.97 [1], the “Composition … of U: Up” value [12] was 1.00 [1] and the “Composition … of U: Cp” value (Entry 19, template temp35C-4, natural NTP 1 mM, Ds 3 mM, theoretical [2]) was 2.03 [2]. The “Composition … of U: Gp” value [13] was “n.d. [0]”, the “Composition … of U: Np (Dsp)” value [13] was “n.d. [0]” and the “Composition … of U: Ap” value [14] was 0.99 [1]. For the same compound, the “Composition … of U: Up” value [14] was 1.02 [1], the “Composition … of U: Cp” value (Entry 20, template temp35T-4, natural NTP 1 mM, Ds 1 mM, theoretical [2]) was 1.99 [2] and the “Composition … of U: Gp” value [15] was “n.d. [0]”. For the same compound, the “Composition … of U: Np (Dsp)” value [15] was “n.d. [0]”, the “Composition … of U: Ap” value [16] was 0.99 [1] and the “Composition … of U: Up” value [16] was 1.01 [1]. For the same compound, the “Composition … of U: Cp” value (Entry 21, template temp35T-4, natural NTP 1 mM, Ds 3 mM, theoretical [2]) was 2.00 [2], the “Composition of nucleotide incorporated as 5′ neighbor of A: Up” value (shortened to “Composition … of A: Up”) (Entry 28, template DNA13, natural NTP 2 mM, Ds 2 mM, theoretical [0]) was 0.05 [0] and the “Composition of nucleotide incorporated as 5′ neighbor of A: Np (Dsp)” value (“Composition … of A: Np (Dsp)” below) (Entry 28, template DNA13, natural NTP 2 mM, Ds 2 mM, theoretical [1]) was 0.96 [1]. For the same compound, the “Composition of nucleotide incorporated as 5′ neighbor of A: Ap” value (“Composition … of A: Ap” below) (Entry 28, template DNA13, natural NTP 2 mM, Ds 2 mM, theoretical [5]) was 5.04 [5], the “Composition of nucleotide incorporated as 5′ neighbor of A: Gp” value (from here on “Composition … of A: Gp”) (Entry 28, template DNA13, natural NTP 2 mM, Ds 2 mM, theoretical [6]) was 6.02 [6] and the “Composition of nucleotide incorporated as 5′ neighbor of A: Cp” value (shortened to “Composition … of A: Cp”) (Entry 28, template DNA13, natural NTP 2 mM, Ds 2 mM) was 6.93 [7]. The “Composition … of A: Up” value (Entry 29, template DNA14, natural NTP 2 mM, Ds 2 mM, theoretical [0]) was 0.03 [0], the “Composition … of A: Np (Dsp)” value (Entry 29, template DNA14, natural NTP 2 mM, Ds 2 mM, theoretical [1]) was 0.96 [1] and the “Composition … of A: Ap” value [17] was 6.13 [6]. For the same compound, the “Composition … of A: Gp” value [17] was 5.96 [6], the “Composition … of A: Cp” value (Entry 29, template DNA14, natural NTP 2 mM, Ds 2 mM) was 6.93 [7] and the “Composition … of A: Np (Dsp)” value (Entry 31, template DNAcont4, natural NTP 2 mM, Ds 2 mM, theoretical [0]) was 0.02 [0]. For the same compound, the “Composition … of A: Up” value (Entry 31, template DNAcont4, natural NTP 2 mM, Ds 2 mM, theoretical [1]) was 1.09 [1], the “Composition … of A: Ap” value [18] was 6.10 [6] and the “Composition … of A: Gp” value [18] was 5.98 [6]. The “Composition … of A: Cp” value (Entry 31, template DNAcont4, natural NTP 2 mM, Ds 2 mM) was 6.83 [7], the “Composition … of U: Np (Dsp)” value (Entry 36, template DNA13, natural NTP 2 mM, Ds 2 mM, theoretical [0]) was “n.d. [0]” and the “Composition … of U: Ap” value (Entry 36, template DNA13, natural NTP 2 mM, Ds 2 mM, theoretical [2]) was 2.00 [2]. For the same compound, the “Composition … of U: Gp” value [19] was 3.97 [4], the “Composition … of U: Up” value [19] was 4.03 [4] and the “Composition … of U: Cp” value (Entry 36, template DNA13, natural NTP 2 mM, Ds 2 mM, theoretical [5]) was 4.99 [5]. The “Composition … of U: Np (Dsp)” value (Entry 37, template DNA14, natural NTP 2 mM, Ds 2 mM, theoretical [0]) was 0.01 [0], the “Composition … of U: Ap” value (Entry 37, template DNA14, natural NTP 2 mM, Ds 2 mM, theoretical [2]) was 1.99 [2] and the “Composition … of U: Cp” value [20] was 4.02 [4]. The “Composition … of U: Gp” value [20] was 3.91 [4], the “Composition … of U: Up” value [20] was 4.08 [4] and the “Composition … of U: Np (Dsp)” value (Entry 39, template DNAcont4, natural NTP 2 mM, Ds 2 mM, theoretical [0]) was 0.01 [0]. For the same compound, the “Composition … of U: Ap” value (Entry 39, template DNAcont4, natural NTP 2 mM, Ds 2 mM, theoretical [2]) was 1.99 [2], the “Composition … of U: Gp” value [21] was 3.95 [4] and the “Composition … of U: Up” value [21] was 4.05 [4]. The “Composition … of U: Cp” value (Entry 39, template DNAcont4, natural NTP 2 mM, Ds 2 mM, theoretical [5]) was 5.01 [5].
